Type in all cases: cell-based
The target in assay [1] is T1, M1 muscarinic receptor (Homo sapiens, UniProt P11229).
T1 construct: expressed in transfected cells; host or cells: CHO (M1-CHO)
T1 sequence (P11229 1-460): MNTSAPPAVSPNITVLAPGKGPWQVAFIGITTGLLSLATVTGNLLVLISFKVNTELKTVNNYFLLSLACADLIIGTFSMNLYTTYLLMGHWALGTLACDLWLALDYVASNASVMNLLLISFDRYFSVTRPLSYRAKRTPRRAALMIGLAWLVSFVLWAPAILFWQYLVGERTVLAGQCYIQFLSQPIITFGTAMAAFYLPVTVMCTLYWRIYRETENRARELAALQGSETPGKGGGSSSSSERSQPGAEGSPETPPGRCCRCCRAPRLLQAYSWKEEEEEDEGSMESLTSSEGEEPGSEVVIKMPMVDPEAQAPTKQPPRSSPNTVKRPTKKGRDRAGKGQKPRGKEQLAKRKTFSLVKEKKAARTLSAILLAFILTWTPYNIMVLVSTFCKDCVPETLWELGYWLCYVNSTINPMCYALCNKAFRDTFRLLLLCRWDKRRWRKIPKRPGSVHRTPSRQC
In words: Functional mobilization of intracellular calcium (FLIPR), M1-CHO cells. The settings on record: for Emax: 100% efficacy = maximum response obtained with the Carbachol control; for M1 Activity: M1-CHO cells, calcium mobilization (FLIPR). The method in brief: (§1)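 CHO cells expressing human M1–M4 receptors loaded with Fluo-3 AM or Calcium 3 dye (1 mM probenecid, pH 7.4); 0.5% DMSO final. Agonist mode: compound added directly; antagonist mode: 15 min pre-incubation or co-application, then carbachol at EC80. Fluorescence read 60 s on FLIPR; efficacy relative to carbachol maximum.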
On the technique in general: Calcium flux is commonly read through the fluorescence of an indicator in the cells.

Assay [2] has as its target T2, M3 muscarinic receptor (Homo sapiens, UniProt P20309).
T2 construct: expressed in transfected cells; host or cells: CHO (M3-CHO)
In words: Functional mobilization of intracellular calcium (FLIPR), M3-CHO cells. The conditions noted are these: for Emax: 100% efficacy = maximum response obtained with the Carbachol control; for M3 Activity: M3-CHO cells, calcium mobilization (FLIPR). The method in brief: as §1

For assay [3], the target named is T3, M2 muscarinic receptor (Homo sapiens, UniProt P08172).
T3 construct: expressed in transfected cells; host or cells: CHO (M2-CHO)
T3 sequence (P08172 1-466): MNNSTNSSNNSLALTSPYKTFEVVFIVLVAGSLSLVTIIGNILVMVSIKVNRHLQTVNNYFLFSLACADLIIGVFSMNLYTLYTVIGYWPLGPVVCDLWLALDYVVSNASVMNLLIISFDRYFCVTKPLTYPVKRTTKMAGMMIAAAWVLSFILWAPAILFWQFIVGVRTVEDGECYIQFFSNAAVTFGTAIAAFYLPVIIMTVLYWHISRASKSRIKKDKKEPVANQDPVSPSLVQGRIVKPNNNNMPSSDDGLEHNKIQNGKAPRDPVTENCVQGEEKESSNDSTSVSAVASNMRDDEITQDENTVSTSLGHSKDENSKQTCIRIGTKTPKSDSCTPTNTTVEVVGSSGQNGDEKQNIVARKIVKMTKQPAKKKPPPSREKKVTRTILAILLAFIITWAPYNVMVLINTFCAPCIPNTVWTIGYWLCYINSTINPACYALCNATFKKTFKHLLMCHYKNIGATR
In words: Functional mobilization of intracellular calcium (FLIPR), M2-CHO cells. The settings on record: for Emax: 100% efficacy = maximum response obtained with the Carbachol control; for M2 Activity: M2-CHO cells, calcium mobilization (FLIPR). The gist of the method: as §1

The target of assay [4] is T4, M4 muscarinic receptor (Homo sapiens, UniProt P08173).
T4 construct: expressed in transfected cells; host or cells: CHO (M4-CHO)
T4 sequence (P08173 1-479): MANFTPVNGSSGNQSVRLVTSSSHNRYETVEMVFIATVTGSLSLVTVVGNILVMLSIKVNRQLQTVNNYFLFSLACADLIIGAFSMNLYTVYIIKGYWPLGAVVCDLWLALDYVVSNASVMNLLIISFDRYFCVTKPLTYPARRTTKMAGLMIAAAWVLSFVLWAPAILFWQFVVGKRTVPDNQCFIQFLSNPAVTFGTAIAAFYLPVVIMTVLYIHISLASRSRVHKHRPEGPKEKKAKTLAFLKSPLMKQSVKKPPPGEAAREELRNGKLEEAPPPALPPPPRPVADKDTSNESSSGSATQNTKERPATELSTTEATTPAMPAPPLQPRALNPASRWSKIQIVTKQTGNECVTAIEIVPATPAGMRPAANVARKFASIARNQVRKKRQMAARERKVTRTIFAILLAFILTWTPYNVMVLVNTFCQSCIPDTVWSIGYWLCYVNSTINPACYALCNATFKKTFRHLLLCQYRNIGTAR
In words: Functional mobilization of intracellular calcium (FLIPR), M4-CHO cells. The settings on record: for Emax: 100% efficacy = maximum response obtained with the Carbachol control; for M4 Activity: M4-CHO cells, calcium mobilization (FLIPR). The method in brief:
as §1

T2 sequence (P20309 whole entry): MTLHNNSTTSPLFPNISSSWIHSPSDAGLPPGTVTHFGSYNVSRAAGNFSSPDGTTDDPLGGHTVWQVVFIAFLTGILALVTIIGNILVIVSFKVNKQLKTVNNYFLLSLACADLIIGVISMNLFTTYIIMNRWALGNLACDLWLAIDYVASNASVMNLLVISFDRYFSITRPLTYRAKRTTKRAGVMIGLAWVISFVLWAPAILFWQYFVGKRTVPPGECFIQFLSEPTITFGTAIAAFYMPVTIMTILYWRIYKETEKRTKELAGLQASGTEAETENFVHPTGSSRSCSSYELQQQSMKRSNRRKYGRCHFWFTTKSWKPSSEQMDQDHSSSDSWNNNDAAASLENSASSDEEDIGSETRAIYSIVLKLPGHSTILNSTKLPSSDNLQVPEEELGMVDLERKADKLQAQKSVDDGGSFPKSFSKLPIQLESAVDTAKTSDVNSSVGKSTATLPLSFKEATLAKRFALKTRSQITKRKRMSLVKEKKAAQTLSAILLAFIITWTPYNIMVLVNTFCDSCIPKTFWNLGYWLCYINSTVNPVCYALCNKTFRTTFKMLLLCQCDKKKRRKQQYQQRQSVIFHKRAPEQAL

`COc1ccc(-c2cc(F)ccc2F)cc1C1CCN([C@H]2C[C@H]3CC[C@H]2C3)CC1` [Compound 206]: in assay [1], the Emax was below 25% and the “M1 Activity” value is given as “+ (activity was measured to be greater than 5.0 μM)”. Moreover, in assay [2], the maximal effect (Emax) was below 25% and the “M3 Activity” value was “+ (activity was measured to be greater than 5.0 μM)”. Besides, in assay [3], the Emax is below 25% and the “M2 Activity” value is reported as “+ (activity was measured to be greater than 5.0 μM)”. Further, in assay [4], the Emax fell in the range of 25 to 100% and the “M4 Activity” value is “+ (activity was measured to be greater than 5.0 μM)”.
As to `COc1ccc(F)cc1C1CCN(C2CC3CCC(C3)C2)CC1` (stereo not drawn) [Compound 207], in assay [1], the Emax was 25 to 100% and the “M1 Activity” value is listed as “+++ (activity was measured to be less than 1.0 μM)”. Further, in assay [2], the maximum response (Emax) was below 25% and the “M3 Activity” value was “+ (activity was measured to be greater than 5.0 μM)”. Besides, in assay [3], the Emax was below 25% and the “M2 Activity” value is listed as “+ (activity was measured to be greater than 5.0 μM)”. Moreover, in assay [4], the Emax fell in the range of 25 to 100% and the “M4 Activity” value was “+++ (activity was measured to be less than 1.0 μM)”.
As to `COc1ccc(Cl)cc1C1CCN(C2CC3CCC2C3)CC1` (stereo not drawn) [Compound 209, 1-(bicyclo[2.2.1]heptan-2-yl)-4-(5-chloro-2-methoxyphenyl)-piperidine], in assay [1], the maximal response (Emax) was 25 to 100% and the “M1 Activity” value is listed as “++ (activity was measured to be from 1.0 μM to 5.0 μM)”. For the same compound, in assay [2], the maximal effect (Emax) was below 25% and the “M3 Activity” value is “+ (activity was measured to be greater than 5.0 μM)”. Also, in assay [3], the Emax fell in the range of 25 to 100% and the “M2 Activity” value was “++ (activity was measured to be from 1.0 μM to 5.0 μM)”. Besides, in assay [4], the maximal effect (Emax) was 25 to 100% and the “M4 Activity” value is “+++ (activity was measured to be less than 1.0 μM)”.
With `COc1ccccc1C1CCN(C2CC[C@@H](C)C2)CC1` (stereo partly drawn) [Compound 210], in assay [1], the Emax was 25 to 100% and the “M1 Activity” value is given as “+ (activity was measured to be greater than 5.0 μM)”. Moreover, in assay [2], the Emax is below 25% and the “M3 Activity” value is on record as “+ (activity was measured to be greater than 5.0 μM)”. In addition, in assay [3], the Emax is below 25% and the “M2 Activity” value is given as “+ (activity was measured to be greater than 5.0 μM)”. In assay [4], the Emax fell in the range of 25 to 100% and the “M4 Activity” value is “+++ (activity was measured to be less than 1.0 μM)”.
Take `CCOC(=O)N1CCC(N2CCC(c3ccccc3OC)CC2)CC1` [Compound 211]: in assay [1], the maximal effect (Emax) was in the range of 25 to 100% and the “M1 Activity” value is recorded as “+++ (activity was measured to be less than 1.0 μM)”. In addition, in assay [2], the maximal effect (Emax) is 25 to 100% and the “M3 Activity” value was “+ (activity was measured to be greater than 5.0 μM)”. Further, in assay [3], the Emax was in the range of 25 to 100% and the “M2 Activity” value was “+++ (activity was measured to be less than 1.0 μM)”. Also, in assay [4], the Emax was above 100% and the “M4 Activity” value is on record as “+++ (activity was measured to be less than 1.0 μM)”.
`Cc1ccc(F)cc1C1CCN([C@H]2C[C@H]3CC[C@H]2C3)CC1` [Compound 212]: in assay [1], the Emax fell in the range of 25 to 100% and the “M1 Activity” value is “+ (activity was measured to be greater than 5.0 μM)”. For the same compound, in assay [2], the Emax was below 25% and the “M3 Activity” value is “+ (activity was measured to be greater than 5.0 μM)”. For the same compound, in assay [3], the Emax is below 25% and the “M2 Activity” value is reported as “+ (activity was measured to be greater than 5.0 μM)”. For the same compound, in assay [4], the maximal effect (Emax) was in the range of 25 to 100% and the “M4 Activity” value is “+++ (activity was measured to be less than 1.0 μM)”.
With `COc1ccc(Cl)cc1C1(F)CCN(C[C@H]2C[C@H]3C=C[C@H]2C3)CC1` [Compound 213], in assay [1], the Emax lay in the range of 25 to 100% and the “M1 Activity” value is “+ (activity was measured to be greater than 5.0 μM)”. Also, in assay [2], the maximum response (Emax) is below 25% and the “M3 Activity” value is listed as “+ (activity was measured to be greater than 5.0 μM)”. Further, in assay [3], the Emax was 25 to 100% and the “M2 Activity” value is recorded as “++ (activity was measured to be from 1.0 μM to 5.0 μM)”. For the same compound, in assay [4], the maximal effect (Emax) lay in the range of 25 to 100% and the “M4 Activity” value is on record as “+++ (activity was measured to be less than 1.0 μM)”.
As for `COc1ccc(-c2ccc(S(=O)(=O)C(C)C)cc2)cc1C1CCN([C@H]2C[C@H]3CC[C@H]2C3)CC1` [Compound 214], in assay [1], the Emax is 25 to 100% and the “M1 Activity” value is “+ (activity was measured to be greater than 5.0 μM)”. Moreover, in assay [2], the Emax was below 25% and the “M3 Activity” value is listed as “+ (activity was measured to be greater than 5.0 μM)”. Also, in assay [3], the Emax is below 25% and the “M2 Activity” value was “+ (activity was measured to be greater than 5.0 μM)”. In assay [4], the maximal response (Emax) was in the range of 25 to 100% and the “M4 Activity” value is recorded as “++ (activity was measured to be from 1.0 μM to 5.0 μM)”.
As to `CCOC(=O)N1C2CCC1CC(N1CCC(c3cc(-c4ccc(S(=O)(=O)N5CCCC5)cc4)ccc3OC)CC1)C2` (stereo not drawn) [Compound 215], in assay [1], the Emax fell in the range of 25 to 100% and the “M1 Activity” value was “+ (activity was measured to be greater than 5.0 μM)”. Also, in assay [2], the maximal effect (Emax) was below 25% and the “M3 Activity” value is given as “+ (activity was measured to be greater than 5.0 μM)”. Further, in assay [3], the Emax was below 25% and the “M2 Activity” value is “+ (activity was measured to be greater than 5.0 μM)”. For the same compound, in assay [4], the Emax is below 25% and the “M4 Activity” value was “+ (activity was measured to be greater than 5.0 μM)”.
As for `COc1ccc(-c2ccccc2F)cc1C1CCN([C@H]2C[C@H]3CC[C@H]2C3)CC1` [Compound 216], in assay [1], the Emax was below 25% and the “M1 Activity” value is on record as “+ (activity was measured to be greater than 5.0 μM)”. In assay [2], the Emax was below 25% and the “M3 Activity” value is “+ (activity was measured to be greater than 5.0 μM)”. Also, in assay [3], the maximal response (Emax) is below 25% and the “M2 Activity” value was “+ (activity was measured to be greater than 5.0 μM)”. In addition, in assay [4], the maximum response (Emax) fell in the range of 25 to 100% and the “M4 Activity” value was “+ (activity was measured to be greater than 5.0 μM)”.
Take `CCOC(=O)N1CCC(CN2CCC(c3cccc4c3OCO4)CC2)CC1` [Compound 217]: in assay [1], the Emax was 25 to 100% and the “M1 Activity” value is listed as “+++ (activity was measured to be less than 1.0 μM)”. Further, in assay [2], the Emax is below 25% and the “M3 Activity” value is on record as “++ (activity was measured to be from 1.0 μM to 5.0 μM)”. In assay [3], the Emax is below 25% and the “M2 Activity” value is listed as “+ (activity was measured to be greater than 5.0 μM)”. In assay [4], the Emax fell in the range of 25 to 100% and the “M4 Activity” value is reported as “+++ (activity was measured to be less than 1.0 μM)”.
Turning to `CCOC(=O)N1C2CCC1CC(N1CCC(F)(c3cc(Cl)ccc3OC)CC1)C2` (stereo not drawn) [Compound 219, 4-(5-chloro-2-methoxyphenyl)-4-fluoropiperidine tropane ethyl carbamate], in assay [1], the Emax fell in the range of 25 to 100% and the “M1 Activity” value is listed as “+++ (activity was measured to be less than 1.0 μM)”. Further, in assay [2], the maximal response (Emax) was below 25% and the “M3 Activity” value is “+ (activity was measured to be greater than 5.0 μM)”. Besides, in assay [3], the maximum response (Emax) was below 25% and the “M2 Activity” value is “+ (activity was measured to be greater than 5.0 μM)”. In assay [4], the Emax lay within 25 to 100% and the “M4 Activity” value is given as “+++ (activity was measured to be less than 1.0 μM)”.

What is called Emax is the maximal effect, on the per cent scale that the assay sets.

Values taken from patent US7880007B2, “Bicyclic substituted phenyl piperidine modulators of muscarinic receptors” (Vertex Pharmaceuticals Incorporated, priority 2004, dated 2011).
